Test results published in patent publication US9415036B2, “Pharmaceutical composition for use in the treatment or prevention of osteoarticular diseases” (BONE THERAPEUTICS, priority 2008, dated 2016).
“And” between values parts separate entries of the source, which are not always exact repeats. Identical values can stand only once.

Legend:
Type in all cases: cell-based, human
[1] = system: PBMC (Peripheral blood mononuclear cells); assay: Proliferation assay (3H-thymidine) of PBMC
Method: (§1) PBMCs (Peripheral blood mononuclear cells) from heparinized venous blood of healthy volunteers were isolated by Ficoll-gradient centrifugation. MNC (Mononuclear cells) were washed three times in PBS and resuspended in RPMI-1640 medium supplemented with 100 U/mL penicillin, 100 μg/mL streptomycin, and 10% heat-inactivated FBS (Fetal Bovine Serum). Cells were seeded at 100.000 cells in 96-wel plate in a total volume of 200 μL/well.
(§2) PBMC, at 100.000 cells/200 μL, were plated in 96-well microtiter plates and stimulated or not with 10 μg/mL phytohemagglutinin (PHA). Effects of hyaluronic acid “HA” (200 μg/mL) and p-aminoclonidine “A2A” (5 μM) were tested on PBMC.
MSC (Mesenchymal stromal cells) were derived from 20 to 60 mL of heparinized bone marrow (BM) obtained from the iliac crest of healthy volunteers. BM was mixed with phosphate-buffered saline (PBS, 2v:v) and layered on density gradient Ficoll solution. After centrifugation, mononuclear cells were harvested from the interface and washed twice in PBS. Cells were resuspended in standard MEM medium supplemented with 15% FBS. The cells were plated at 2×10^6 cells/75 cm2 flasks and maintained in a 37° C. humidified atmosphere containing 5% CO2. Cells were allowed to attach for 24 hours prior an initial medium change. Cells were detached at day 10 using trypsin-EDTA solution for 1-5 min at 37° C. Then, cells were irradiated (10 minutes at 2200Ci) before seeding in 96-well for proliferative assays at 12.500 cells/well to obtain a ratio 1:8 (MSC:PBMC).
The culture was incubated with 1 μCi/mL 3H-thymidine for 24 hours before end of culture to measure the proliferation. Then, cells were washed twice with ice-cold PBS and twice with ice-cold 5% trichloroacetic acid (TCA). Finally, cells were lysed with 0.1N NaOH-0.1% Triton-X100. Supernatants were collected and analyzed on a beta-counter in presence of scintillation liquid. Results were done in cpm (“count per minute”=disintegration number of radioactive element observed in series of successive counts of one minute). IL-1β (beta) detection (By ELISA). Levels of IL-1β from PBMC or culture supernatants were measured by Quantikine ELISA kit (R&D Systems Inc, Mineapolis, USA). The minimum detectable concentration of IL-1β was estimated at 1.0 pg/mL.
The release of IL-1 beta by PBMC and the proliferation of PBMC, induced by PHA stimulation, were set as controls, and compared with the measures for PBMC treated with HA and/or A2A.

[2] = system: IL-1β; assay: IL-1β detection (ELISA) in PBMC culture supernatants
Method: as §1, §2
MSC (Mesenchymal stromal cells) were derived from 20 to 60 mL of heparinized bone marrow (BM) obtained from the iliac crest of healthy volunteers. BM was mixed with phosphate-buffered saline (PBS, 2v:v) and layered on density gradient Ficoll solution. After centrifugation, mononuclear cells were harvested from the interface and washed twice in PBS. […]
The culture was incubated with 1 μCi/mL 3H-thymidine for 24 hours before end of culture to measure the proliferation. […] Supernatants were collected and analyzed on a beta-counter in presence of scintillation liquid. […] Levels of IL-1β from PBMC or culture supernatants were measured by Quantikine ELISA kit (R&D Systems Inc, Mineapolis, USA). […]

[3] = system: MSCs; assay: MSCs cultured in chondrogenic medium, pellets stained with Alcian blue / Nuclear fast red; conditions: HA 200 μg/ml, A2A 5 μMol
Method: MSCs were culture in chondrogenic medium for 7, 14 and 21 days and 4 conditions were tested • control • A2A: 5 μMol aminoclonidine • HA: 200 μg/ml of hyaluronic acid • HA+A2A: 200 μg/ml of hyaluronic acid and 5 μMol aminoclonidine
At day 14 and 21, pellets were fixed in 10% buffered formalin for 6 hours, and washed twice in PBS. Pellets were then embedded in OCT (Sakura Finetek, Belgium). Sections were cut at a thickness of 5 μm and were stained with Alcian blue, before counterstained with Nuclear fast red (Klinipath, Belgium)
GAGs will be stained blue, while Nuclear fast red will counterstain cells nuclei in pink or red, and cytoplasm in pale pink. In brief, the procedure is 1) Stain in alcian blue solution for 30 minutes; 3) Wash in running tap water for 2 minutes; 4) Rinse in distilled water; 5) Counterstain in nuclear fast red solution for 5 minutes; 6) Wash in running tap water for 1 minute; 7) Dehydrate through 95% alcohol, and 2 changes of absolute alcohol, 3 minutes each; 8) clear in Ultraclear, a xylene substitute (Klinipath, Belgium); 9) Mount with Ultrakit mounting medium (Klinipahth, Belgium). Toluidine blue stains proteoglycan in red-purple (metachromatic staining) and the nucleus in blue (orthochromatic staining). Metachromasia, tissue elements staining a different color from the dye solution, is due to the pH, dye concentration and temperature of the basic dye. […]

[4] = basal (unstimulated) conditions

With `Nc1cc(Cl)c(N=C2NCCN2)c(Cl)c1` [A2A, p-aminoclonidine] the Proliferation ([1]; PBMC stimulated with 10 μg/mL PHA, HA 200 μg/mL, A2A 5 μM, MSC:PBMC 1:8) was 16212 cpm, the “effect on PBMC proliferation” value ([1]; PHA stimulated PBMC) was “not able to inhibit” and the Proliferation ([1]; PHA stimulated PBMC, PBMC + PHA set at 100) was 101% and 100%. For the same compound, the “effect on PBMC proliferation” value [1, 4] was “no effect”, the Proliferation ([1]; unstimulated PBMC, HA 200 μg/mL, A2A 5 μM, MSC:PBMC 1:8) was 786 cpm and the Proliferation ([1]; unstimulated PBMC, PBMC + PHA set at 100) was 4.9%. The “effect on IL-1beta secretion” value ([2]; PHA stimulated PBMC) was “totally suppressed”, the “effect on IL-1beta secretion” value [2, 4] was “no effect” and the “matrix (mucopolysaccharides and glycosaminoglycans) content / production, Alcian blue staining” value [3] was “almost absent”.
